# Measurements from patent US11802111B2, “Cyclobutyl amide monoacylglycerol lipase modulators” (Janssen Pharmaceutica NV, priority 2020, dated 2023).
# Molecular target: human MGL from HeLa cells (Homo sapiens (Human), UniProt Q99685)
# Experiment: MGL in vitro activity assay ([glycerol-1,3-3H]-oleoyl glycerol hydrolysis, activated carbon filtration)
# Type: biochemical
# Settings: 300 nM [Glycerol-1,3-3H]-oleoyl glycerol, one hour
# Method in brief: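 Activity measured as tritium in the flow-through after activated carbon filtration of a 1 h reaction containing 300 nM 3H-oleoyl glycerol, compound and HeLa-derived human MGL. Compounds screened at 10 μM; IC50 series start at an empirically chosen highest concentration.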
# Sequence of human MGL from HeLa cells (Q99685 whole entry): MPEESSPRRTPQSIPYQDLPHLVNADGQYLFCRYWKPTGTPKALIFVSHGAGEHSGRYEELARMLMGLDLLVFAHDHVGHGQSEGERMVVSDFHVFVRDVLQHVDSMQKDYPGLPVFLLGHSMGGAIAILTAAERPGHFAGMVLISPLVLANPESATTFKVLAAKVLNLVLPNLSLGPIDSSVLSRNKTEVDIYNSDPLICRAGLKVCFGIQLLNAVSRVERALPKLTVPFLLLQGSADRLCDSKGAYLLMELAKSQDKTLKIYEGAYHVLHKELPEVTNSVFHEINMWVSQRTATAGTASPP
row,Compound,IC50
1,"C[C@]1(O)C[C@@H](C(=O)N2CC3(CC(Cn4c(C(F)(F)F)cc5cccnc54)C3)C2)C1 [Example 294, ((1s,3s)-3-Hydroxy-3-methylcyclobutyl)(6-((2-(trifluoromethyl)-1H-pyrrolo[2,3-b]pyridin-1-yl)methyl)-2-azaspiro[3.3]heptan-2-yl)methanone]",10 nM
2,"C[C@]1(O)C[C@@H](C(=O)N2CC3(CC(Cn4ccc5ccc(C(F)(F)F)nc54)C3)C2)C1 [Example 295, ((1s,3s)-3-Hydroxy-3-methylcyclobutyl)(6-((6-(trifluoromethyl)-1H-pyrrolo[2,3-b]pyridin-1-yl)methyl)-2-azaspiro[3.3]heptan-2-yl)methanone]",20 nM
3,"Cn1cc(C(F)(F)F)c2ccc(CC3CC4(C3)CN(C(=O)[C@H]3C[C@@](C)(O)C3)C4)nc21 [Example 296, ((1s,3s)-3-Hydroxy-3-methylcyclobutyl)(6-((1-methyl-3-(trifluoromethyl)-1H-pyrrolo[2,3-b]pyridin-6-yl)methyl)-2-azaspiro[3.3]heptan-2-yl)methanone]",0.29 nM
4,"C[C@]1(O)C[C@@H](C(=O)N2CC3(CC(Cc4ccc5ccn(CC(F)(F)F)c5n4)C3)C2)C1 [Example 297, ((1s,3s)-3-Hydroxy-3-methylcyclobutyl)(6-((1-(2,2,2-trifluoroethyl)-1H-pyrrolo[2,3-b]pyridin-6-yl)methyl)-2-azaspiro[3.3]heptan-2-yl)methanone]",21 nM
5,"Cn1ccc2cnc(CC3CC4(C3)CN(C(=O)[C@H]3C[C@@](C)(O)C3)C4)cc21 [Example 298, ((1s,3s)-3-Hydroxy-3-methylcyclobutyl)(6-((1-methyl-1H-pyrrolo[3,2-c]pyridin-6-yl)methyl)-2-azaspiro[3.3]heptan-2-yl)methanone]",775 nM
6,"Cn1ncc2cccc(CC3CC4(C3)CN(C(=O)[C@H]3C[C@@](C)(O)C3)C4)c21 [Example 299, ((1s,3s)-3-Hydroxy-3-methylcyclobutyl)(6-((1-methyl-1H-indazol-7-yl)methyl)-2-azaspiro[3.3]heptan-2-yl)methanone]",70 nM
7,"Cn1ncc2cc(F)c(CC3CC4(C3)CN(C(=O)[C@H]3C[C@@](C)(O)C3)C4)cc21 [Example 304, (6-((5-Fluoro-1-methyl-1H-indazol-6-yl)methyl)-2-azaspiro[3.3]heptan-2-yl)((1s,3s)-3-hydroxy-3-methylcyclobutyl)methanone]",13 nM
8,"C[C@]1(O)C[C@@H](C(=O)N2CC3(CC(Cc4ccc5cnn(CC(F)(F)F)c5c4)C3)C2)C1 [Example 307, ((1s,3s)-3-Hydroxy-3-methylcyclobutyl)(6-((1-(2,2,2-trifluoroethyl)-1H-indazol-6-yl)methyl)-2-azaspiro[3.3]heptan-2-yl)methanone]",431 nM
9,"Cc1nc(OC2CC3(C2)CN(C(=O)[C@H]2C[C@@](C)(O)C2)C3)ccc1C(F)(F)F [Example 309, ((1s,3s)-3-Hydroxy-3-methylcyclobutyl)(6-((6-methyl-5-(trifluoromethyl)pyridin-2-yl)oxy)-2-azaspiro[3.3]heptan-2-yl)methanone]",130 nM
10,"Cn1ccc2ccc(C(F)(F)C3CC4(C3)CN(C(=O)[C@H]3C[C@@](C)(O)C3)C4)nc21 [Example 317, (6-(Difluoro(1-methyl-1H-pyrrolo[2,3-b]pyridin-6-yl)methyl)-2-azaspiro[3.3]heptan-2-yl)((1s,3s)-3-hydroxy-3-methylcyclobutyl)methanone]",69 nM
11,"C[C@]1(O)C[C@@H](C(=O)N2CC3(CCC(F)(c4ccccc4)CC3)C2)C1 [Example 340, (7-Fluoro-7-phenyl-2-azaspiro[3.5]nonan-2-yl)((1s,3s)-3-hydroxy-3-methylcyclobutyl)methanone]",288 nM
12,"Cn1ccc2ccc(C3(F)CCC4(CC3)CN(C(=O)[C@H]3C[C@@](C)(O)C3)C4)nc21 [Example 341, (7-Fluoro-7-(1-methyl-1H-pyrrolo[2,3-b]pyridin-6-yl)-2-azaspiro[3.5]nonan-2-yl)((1s,3s)-3-hydroxy-3-methylcyclobutyl)methanone]",101 nM
13,"COC1(c2ccccc2)CCC2(CC1)CN(C(=O)[C@H]1C[C@@](C)(O)C1)C2 [Example 342, ((1s,3s)-3-Hydroxy-3-methylcyclobutyl)(7-methoxy-7-phenyl-2-azaspiro[3.5]nonan-2-yl)methanone]",40 nM
14,"COC1(c2ccccc2C)CCC2(CC1)CN(C(=O)[C@H]1C[C@@](C)(O)C1)C2 [Example 343, ((1s,3s)-3-Hydroxy-3-methylcyclobutyl)(7-methoxy-7-(o-tolyl)-2-azaspiro[3.5]nonan-2-yl)methanone]",16 nM

# The remaining lines, values ahead:
row,IC50,Compound
1,19 nM,"Cc1cc2ccc(CC3CC4(C3)CN(C(=O)[C@H]3C[C@@](C)(O)C3)C4)nc2n1C [Example 292, (6-((1,2-Dimethyl-1H-pyrrolo[2,3-b]pyridin-6-yl)methyl)-2-azaspiro[3.3]heptan-2-yl)((1s,3s)-3-hydroxy-3-methylcyclobutyl)methanone]"
2,10 nM,"Cn1cc(F)c2ccc(CC3CC4(C3)CN(C(=O)[C@H]3C[C@@](C)(O)C3)C4)nc21 [Example 293, (6-((3-Fluoro-1-methyl-1H-pyrrolo[2,3-b]pyridin-6-yl)methyl)-2-azaspiro[3.3]heptan-2-yl)((1s,3s)-3-hydroxy-3-methylcyclobutyl)methanone]"
3,20 nM,"Cc1cc(CC2CC3(C2)CN(C(=O)[C@H]2C[C@@](C)(O)C2)C3)cc2c1cnn2C [Example 300, (6-((1,4-Dimethyl-1H-indazol-6-yl)methyl)-2-azaspiro[3.3]heptan-2-yl)((1s,3s)-3-hydroxy-3-methylcyclobutyl)methanone]"
4,36 nM,"Cc1cc2cnn(C)c2cc1CC1CC2(C1)CN(C(=O)[C@H]1C[C@@](C)(O)C1)C2 [Example 301, (6-((1,5-Dimethyl-1H-indazol-6-yl)methyl)-2-azaspiro[3.3]heptan-2-yl)((1s,3s)-3-hydroxy-3-methylcyclobutyl)methanone]"
5,21 nM,"Cc1nn(C)c2cc(CC3CC4(C3)CN(C(=O)[C@H]3C[C@@](C)(O)C3)C4)ccc12 [Example 302, (6-((1,3-Dimethyl-1H-indazol-6-yl)methyl)-2-azaspiro[3.3]heptan-2-yl)((1s,3s)-3-hydroxy-3-methylcyclobutyl)methanone]"
6,29 nM,"Cn1ncc2c(F)cc(CC3CC4(C3)CN(C(=O)[C@H]3C[C@@](C)(O)C3)C4)cc21 [Example 303, (6-((4-Fluoro-1-methyl-1H-indazol-6-yl)methyl)-2-azaspiro[3.3]heptan-2-yl)((1s,3s)-3-hydroxy-3-methylcyclobutyl)methanone]"
7,28 nM,"Cn1ncc2ccc(CC3CC4(C3)CN(C(=O)[C@H]3C[C@@](C)(O)C3)C4)c(F)c21 [Example 305, (6-((7-Fluoro-1-methyl-1H-indazol-6-yl)methyl)-2-azaspiro[3.3]heptan-2-yl)((1s,3s)-3-hydroxy-3-methylcyclobutyl)methanone]"
8,23 nM,"CC(C)n1ncc2ccc(CC3CC4(C3)CN(C(=O)[C@H]3C[C@@](C)(O)C3)C4)cc21 [Example 306, ((1s,3s)-3-Hydroxy-3-methylcyclobutyl)(6-((1-isopropyl-1H-indazol-6-yl)methyl)-2-azaspiro[3.3]heptan-2-yl)methanone]"
9,117 nM,"CC(C)n1cc2ccc(CC3CC4(C3)CN(C(=O)[C@H]3C[C@@](C)(O)C3)C4)cc2n1 [Example 308, ((1s,3s)-3-Hydroxy-3-methylcyclobutyl)(6-((2-isopropyl-2H-indazol-6-yl)methyl)-2-azaspiro[3.3]heptan-2-yl)methanone]"
